Results as given in ChEMBL document CHEMBL1201862, “PubChem BioAssay data set” (2004).
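Tested at 5 concentrations; 48 h exposure; 96-well plates; endpoints linearly interpolated, else capped at highest concentration. GI50 marks 50% less growth.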 The source made the active and inactive calls. Rule as the data show it: active = GI50 up to about 1.1 µM and inactive = higher.

Tests used:
Test in all cases: DTP human tumour cell line panel, 48 h
[1] = test system: HOP-92
[2] = test system: OVCAR-4
[3] = test system: UACC-62
[4] = test system: IGROV-1
[5] = test system: SK-MEL-5
[6] = test system: XF498
[7] = test system: HCT-15
[8] = test system: SF-268
[9] = test system: NCI-H23
[10] = test system: SK-MEL-28
[11] = test system: K562
[12] = test system: OVCAR-8
[13] = test system: CAKI-1
[14] = test system: M14
[15] = test system: NCI-H522
[16] = test system: HCC 2998
[17] = test system: LXFL 529
[18] = test system: RXF 393
[19] = test system: RXF 631
[20] = test system: KM-20L2
[21] = test system: OVCAR-3
[22] = test system: 786-0
[23] = test system: M19-MEL
[24] = test system: U-251
[25] = test system: TK-10
[26] = test system: SF-295
[27] = test system: MOLT-4
[28] = test system: HL-60
[29] = test system: HT-29
[30] = test system: UACC-257
[31] = test system: ACHN
[32] = test system: SR
[33] = test system: HCT-116
[34] = test system: NCI-H226
[35] = test system: LOX IMVI
[36] = test system: COLO 205
[37] = test system: SN12C
[38] = test system: RPMI-8226
[39] = test system: DLD-1
[40] = test system: SW-620
[41] = test system: KM12
[42] = test system: DMS-273
[43] = test system: CCRF-CEM
[44] = test system: SNB-78
[45] = test system: HOP-18
[46] = test system: Malme-3M
[47] = test system: NCI-H460
[48] = test system: SNB-19
[49] = test system: OVCAR-5
[50] = test system: A498
[51] = test system: SF-539
[52] = test system: HOP-62
[53] = test system: A549
[54] = test system: SK-MEL-2
[55] = test system: SNB-75
[56] = test system: SK-OV-3
[57] = test system: UO-31
[58] = test system: EKVX

SMILES: CC(=O)OCC1OC(OCc2ccccc2)C(Br)C(OC(C)=O)C1OC(C)=O (stereo not drawn)
- GI50 [1]: > 100 µM (inactive)
- GI50 [2]: > 100 µM (inactive)
- GI50 [3]: > 100 µM (inactive)
- GI50 [4]: > 100 µM (inactive)
- GI50 [5]: > 100 µM (inactive)
- GI50 [6]: > 100 µM (inactive)
- GI50 [7]: > 100 µM
- GI50 [8]: > 100 µM (inactive)
- GI50 [9]: > 100 µM (inactive)
- GI50 [10]: > 100 µM (inactive)
- GI50 [11]: > 100 µM (inactive)
- GI50 [12]: > 100 µM (inactive)
- GI50 [13]: > 100 µM (inactive)
- GI50 [14]: > 100 µM (inactive)
- GI50 [15]: > 100 µM (inactive)
- GI50 [16]: > 100 µM (inactive)
- GI50 [17]: > 100 µM (inactive)
- GI50 [18]: > 100 µM (inactive)
- GI50 [19]: > 100 µM (inactive)
- GI50 [20]: > 100 µM (inactive)
- GI50 [21]: > 100 µM (inactive)
- GI50 [22]: > 100 µM (inactive)
- GI50 [23]: > 100 µM (inactive)
- GI50 [24]: > 100 µM (inactive)
- GI50 [25]: > 100 µM (inactive)
- GI50 [26]: > 100 µM (inactive)
- GI50 [27]: > 100 µM (inactive)
- GI50 [28]: > 100 µM (inactive)
- GI50 [29]: > 100 µM (inactive)
- GI50 [30]: > 100 µM (inactive)
- GI50 [31]: > 100 µM (inactive)
- GI50 [32]: > 100 µM (inactive)
- GI50 [33]: > 100 µM (inactive)
- GI50 [34]: > 100 µM (inactive)
- GI50 [35]: > 100 µM (inactive)
- GI50 [36]: > 100 µM (inactive)
- GI50 [37]: > 100 µM (inactive)
- GI50 [38]: > 100 µM (inactive)
- GI50 [39]: > 100 µM (inactive)
- GI50 [40]: > 100 µM (inactive)
- GI50 [41]: > 100 µM (inactive)
- GI50 [42]: > 100 µM (inactive)
- GI50 [43]: > 100 µM (inactive)
- GI50 [44]: > 100 µM (inactive)
- GI50 [45]: > 100 µM (inactive)
- GI50 [46]: > 100 µM (inactive)
- GI50 [47]: > 100 µM (inactive)
- GI50 [48]: > 100 µM (inactive)
- GI50 [49]: > 100 µM (inactive)
- GI50 [50]: > 100 µM (inactive)
- GI50 [51]: > 100 µM (inactive)
- GI50 [52]: > 100 µM (inactive)
- GI50 [53]: > 100 µM (inactive)

SMILES: CC(=O)CC(=O)CCCC(=O)Nc1ccc(Cl)cc1Cl
- GI50 [1]: > 100 µM (inactive)
- GI50 [2]: > 100 µM (inactive)
- GI50 [3]: > 100 µM (inactive)
- GI50 [4]: > 100 µM (inactive)
- GI50 [6]: > 100 µM (inactive)
- GI50 [7]: > 100 µM
- GI50 [8]: > 100 µM (inactive)
- GI50 [9]: > 100 µM (inactive)
- GI50 [54]: > 100 µM (inactive)
- GI50 [10]: > 100 µM (inactive)
- GI50 [11]: > 100 µM (inactive)
- GI50 [12]: > 100 µM (inactive)
- GI50 [13]: > 100 µM (inactive)
- GI50 [14]: > 100 µM (inactive)
- GI50 [15]: > 100 µM (inactive)
- GI50 [16]: > 100 µM (inactive)
- GI50 [17]: > 100 µM (inactive)
- GI50 [19]: > 100 µM (inactive)
- GI50 [20]: > 100 µM (inactive)
- GI50 [21]: > 100 µM (inactive)
- GI50 [22]: > 100 µM (inactive)
- GI50 [55]: > 100 µM (inactive)
- GI50 [25]: > 100 µM (inactive)
- GI50 [26]: > 100 µM (inactive)
- GI50 [27]: > 100 µM (inactive)
- GI50 [28]: > 100 µM (inactive)
- GI50 [29]: > 100 µM (inactive)
- GI50 [56]: > 100 µM (inactive)
- GI50 [30]: > 100 µM (inactive)
- GI50 [31]: > 100 µM (inactive)
- GI50 [32]: > 100 µM (inactive)
- GI50 [33]: > 100 µM (inactive)
- GI50 [34]: > 100 µM (inactive)
- GI50 [35]: > 100 µM (inactive)
- GI50 [36]: > 100 µM (inactive)
- GI50 [37]: > 100 µM (inactive)
- GI50 [38]: > 100 µM (inactive)
- GI50 [39]: > 100 µM (inactive)
- GI50 [40]: > 100 µM (inactive)
- GI50 [41]: > 100 µM (inactive)
- GI50 [42]: > 100 µM (inactive)
- GI50 [57]: > 100 µM (inactive)
- GI50 [45]: 25.2 µM (inactive)
- GI50 [46]: > 100 µM (inactive)
- GI50 [47]: > 100 µM (inactive)
- GI50 [48]: > 100 µM (inactive)
- GI50 [49]: > 100 µM (inactive)
- GI50 [51]: > 100 µM (inactive)
- GI50 [52]: > 100 µM (inactive)
- GI50 [53]: > 100 µM (inactive)

SMILES: CCN(CC)CCOc1ccc(C(=C2CCCCC2)c2ccc(OCCN(CC)CC)cc2)cc1
- GI50 [1]: 2.02 µM (inactive)
- GI50 [2]: 2.31 µM (inactive)
- GI50 [4]: 1.71 µM (inactive)
- GI50 [5]: 1.58 µM (inactive)
- GI50 [6]: 1.07 µM (active)
- GI50 [7]: 1.54 µM
- GI50 [8]: 1.68 µM (inactive)
- GI50 [9]: 1.86 µM (inactive)
- GI50 [54]: 1.93 µM (inactive)
- GI50 [10]: 1.32 µM (inactive)
- GI50 [11]: 0.267 µM (active)
- GI50 [12]: 1.73 µM (inactive)
- GI50 [13]: 1.96 µM (inactive)
- GI50 [58]: 1.74 µM (inactive)
- GI50 [14]: 1.55 µM (inactive)
- GI50 [15]: 1.76 µM (inactive)
- GI50 [16]: 1.3 µM (inactive)
- GI50 [17]: 1.69 µM (inactive)
- GI50 [18]: 1.59 µM (inactive)
- GI50 [19]: 1.46 µM (inactive)
- GI50 [20]: 1.27 µM (inactive)
- GI50 [21]: 1.72 µM (inactive)
- GI50 [22]: 1.39 µM (inactive)
- GI50 [23]: 1.71 µM (inactive)
- GI50 [24]: 1.64 µM (inactive)
- GI50 [55]: 1.45 µM (inactive)
- GI50 [25]: 1.5 µM (inactive)
- GI50 [26]: 1.85 µM (inactive)
- GI50 [27]: 0.612 µM (active)
- GI50 [28]: 0.299 µM (active)
- GI50 [29]: 1.1 µM (active)
- GI50 [56]: 1.87 µM (inactive)
- GI50 [30]: 1.87 µM (inactive)
- GI50 [31]: 1.75 µM (inactive)
- GI50 [33]: 1.25 µM (inactive)
- GI50 [34]: 2.15 µM (inactive)
- GI50 [35]: 1.23 µM (inactive)
- GI50 [36]: 1.34 µM (inactive)
- GI50 [37]: 1.66 µM (inactive)
- GI50 [38]: 0.7 µM (active)
- GI50 [39]: 1.93 µM (inactive)
- GI50 [40]: 1.25 µM (inactive)
- GI50 [41]: 1.27 µM (inactive)
- GI50 [42]: 1.52 µM (inactive)
- GI50 [43]: 0.931 µM (active)
- GI50 [57]: 1.59 µM (inactive)
- GI50 [45]: 2.89 µM (inactive)
- GI50 [46]: 1.72 µM (inactive)
- GI50 [47]: 1.47 µM (inactive)
- GI50 [48]: 1.73 µM (inactive)
- GI50 [49]: 1.79 µM (inactive)
- GI50 [50]: 1.78 µM (inactive)
- GI50 [51]: 1.55 µM (inactive)
- GI50 [52]: 1.77 µM (inactive)
- GI50 [53]: 1.62 µM (inactive)
